Experimental data taken from patent US20170037118A1, “Methods for treating and/or limiting development of diabetes” (Biocrine AB, priority 2013, published 2017).

Test system: 12-weeks-old ob/ob islets
Experiment: Caspase 3/7 activity assay (apoptosis)
Assay type: cell-based, mouse
Conditions: β-cells from 12-weeks old ob/ob mice incubated overnight with the Ca2+-channel blocker
Protocol: ApoCIII expression was measured by real-time qPCR to determine the efficacy of apoCIII knockdown in cultured islets (n=4). […] (c) 25 mM KCl was used to induce depolarization and subsequent Ca^2+ influx (n=9-10). (d) Caspase 3/7 activity in ob/ob islets isolated from animals at 4-, 8- and 12-weeks of age (n=4). (e) Decrease in caspase activity in β-cells from 12-weeks old ob/ob mice either incubated overnight with the Ca^2+-channel blocker verapamil (left column) or exposed to apoCIII antisense (right column) (n=4). Data presented as mean±SEM. *P<0.05, ** P<0.01 by student's t-test or ANOVA (Tukey's post-hoc).
Caspase assay. Activity of capase 3/7 was determined using SensoLyte™ Homogeneous Rh110 Caspase 3/7 assay kit according to manufacturer's instructions, with modifications (AnaChem, USA). Briefly, islets or cells were harvested, lysed using lysis buffer (AnaChem, USA) and the protein quantified using BCA method. 10 μg of protein was loaded in a black 384-well plate and topped up with the appropriate amount of assay buffer (AnaChem, USA) containing Rh110 Caspase 3/7 Substrate. Plate was incubated in the dark for 1 hour at 24° C. Fluorescence intensity at Ex/Em=490/520nm was measured to determine the relative caspase activity.
It was determined if reducing endogenous apoCIII affects apoptosis in ob/ob islets. […]

## COc1ccc(CCN(C)CCCC(C#N)(c2ccc(OC)c(OC)c2)C(C)C)cc1OC (stereo not shown) [verapamil]
  reduction of caspase activity: 15%
